Results taken from US10251874B2, “Crystalline forms of a JAK inhibitor compound” (THERAVANCE BIOPHARMA R&D IP, LLC, priority 2017, dated 2019).

Tested on: IL-27 induced CXCL9 secretion in EpiAirway tissue cultures
Test: Assay 15: IL-27 induced CXCL9 in human 3D airway cultures
Assay type: cell-based
Settings: 192 h, Day 8, average from 3 or 4 donors, read-out: % inhibition of IL-27 induced CXCL9 secretion (±STDV)
Method: EpiAirway tissue cultures were obtained from Mattek (AIR-100). Cultures were derived from asthmatic donors. In a cell culture insert, human derived tracheal/bronchial epithelial cells were grown and differentiated on a porous membrane support, allowing an air-liquid interface with warmed culture medium below the cells and a gaseous test atmosphere above. Tissues were cultured in maintenance media (Mattek, AIR-100-MM) in a 37° C., 5% CO2 humidified incubator. Four donors were tested. On Day 0, tissue cultures were treated with test compounds at 10 μM, 1 μM and/or 0.1 μM. Compounds were diluted in dimethyl sulfoxide (DMSO, Sigma) to a final concentration of 0.1%. DMSO at 0.1% was used as a vehicle control. Test compounds were incubated with cultures for 1 hour at 37° C., 5% CO2, followed by the addition of pre-warmed media containing IFNγ (R&D Systems) or IL-27 (R&D Systems) at a final concentration at 100 ng/ml. Tissue cultures were maintained for 8 days. Media was replaced every 2 days with fresh media containing compounds and IFNγ or IL-27. On Day 8, tissue cultures and supernatants were collected for analysis. Supernatant samples were assayed for CXCL10 (IP-10) and CXCL9 (MIG) using luminex analysis (EMD Millipore). Data is expressed as % Inhibition +/−standard deviation (±STDV). Percent inhibition was determined by compound inhibitory potency against IFNγ or IL-27 induced CXCL10 or CXCL9 secretion compared to vehicle treated cells. Data is the average from 3 or 4 donors. Compound 1 was able to inhibit IFNγ induced CXCL10 secretion by 99%±2.0 (at 10 μM), 71%±19 (at […]) and 17%±12 (at 0.1 μM) when compared to vehicle control. Compound 1 was able to inhibit IFNγ induced CXCL9 secretion by 100%±0.3 (at 10 μM), 99%±0.9 (at 1 μM) and 74%±17 (at 0.1 μM) when compared to vehicle. […] Compound 1 was able to inhibit IL-27 induced CXCL9 secretion by 100%±0 (at 10 μM), 95%±3.7 (at 1 μM) and 75%±3.5 (at 0.1 μM) when compared to vehicle control.

CCc1cc(O)c(F)cc1-c1ccc2c(-c3nc4c([nH]3)CCN(C3CCN(C)CC3)C4)n[nH]c2c1 [Compound 1, 5-ethyl-2-fluoro-4-(3-(5-(1-methylpiperidin-4-yl)-4,5,6,7-tetrahydro-1H-imidazo[4,5-c]pyridin-2-yl)-1H-indazol-6-yl)phenol]
inhibition at 0.1 µM (at 0.1 μM): 75% | inhibition at 1 µM (at 1 μM): 95% | inhibition at 10 µM (at 10 μM): 100%
